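These data come from cells grown in 96-well plates and exposed to compound for 48 hours at five concentrations. The concentration for 50% growth inhibition is given as GI50. Definition used: TGI = concentration required for complete inhibition of growth.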
Columns and labels:
Experiment in all cases: NCI tumour cell line growth inhibition, 48 h
HOP-92 NSCLC = system: HOP-92 NSCLC
HT29 colon = system: HT29 colon
KM12 colon = system: KM12 colon
MOLT-4 leukemia = system: MOLT-4 leukemia
NCI-H460 lung = system: NCI-H460 lung
OVCAR-5 ovarian = system: OVCAR-5 ovarian
OVCAR-8 ovarian = system: OVCAR-8 ovarian
RXF 393 renal = system: RXF 393 renal
SW-620 colon = system: SW-620 colon
UACC-62 melanoma = system: UACC-62 melanoma

SMILES	TGI (HOP-92 NSCLC) [µM]	TGI (HT29 colon) [µM]	TGI (KM12 colon) [µM]	TGI (MOLT-4 leukemia) [µM]	TGI (NCI-H460 lung) [µM]	TGI (OVCAR-5 ovarian) [µM]	TGI (OVCAR-8 ovarian) [µM]	TGI (RXF 393 renal) [µM]	TGI (SW-620 colon) [µM]	TGI (UACC-62 melanoma) [µM]	GI50 (HOP-92 NSCLC) [µM]	GI50 (HT29 colon) [µM]	GI50 (KM12 colon) [µM]	GI50 (MOLT-4 leukemia) [µM]	GI50 (NCI-H460 lung) [µM]	GI50 (OVCAR-5 ovarian) [µM]	GI50 (OVCAR-8 ovarian) [µM]	GI50 (RXF 393 renal) [µM]	GI50 (SW-620 colon) [µM]	GI50 (UACC-62 melanoma) [µM]
COC(=O)C1(C(=O)OC)CC2c3c(c4ccccc4n3C)CC(C1=O)N2Cc1ccccc1 (configuration not stated)	> 100	> 100	> 100	> 100	> 100	> 100	> 100	> 100	> 100	> 100	–	–	–	–	–	–	–	–	–	–
O=C(O)c1ccc2c(c1Nc1ccccc1)C(=O)c1ccccc1C2=O	> 100	> 100	> 100	> 100	> 100	> 100	> 100	> 100	> 100	> 100	27.9	98.4	61.1	> 100	27.3	> 100	72.6	26.3	44.1	35.6
O=C(O)C1NCCc2c1[nH]c1ccccc21 (configuration not stated)	> 100	> 100	> 100	> 100	> 100	> 100	> 100	> 10	> 100	> 100	> 100	> 100	> 100	> 100	–	–	> 100	–	> 100	> 100
Cn1ncc2c(/N=C/c3cccs3)[nH]c(=S)nc21	> 100	> 100	> 59.4	> 100	> 100	> 100	> 100	> 73.3	> 100	52.4	61.2	52.3	28.8	44.1	31	54	57.5	26.2	31.5	19.6
Cc1ccccc1NC(=O)C(=O)C(c1cnc2ccc([N+](=O)[O-])cc2n1)[N+](=O)[O-] (configuration not stated)	> 100	> 100	> 100	> 100	> 100	> 100	> 100	> 100	> 100	> 100	–	–	–	–	–	–	–	–	–	–
C=C1C(=O)O[C@@H]2C(=O)[C@@H](C)[C@@H]3C=CC(=O)[C@@]3(C)[C@@H](OC(=O)/C(C)=C\C)[C@H]12	1.43	1.36	8	2.65	6.05	4.69	12	1.47	1.76	2.95	–	–	–	–	–	–	–	–	–	–
COc1ccc(/C(C)=C(\c2ccc(Cl)cc2)c2ccc(OCCN3CCCC3)cc2)cc1F	6.63	3.47	4.5	8.28	5.29	6.37	9.68	6.49	5.68	6.32	3.12	0.724	1.26	3.48	2.1	3.15	4.22	3.19	2.5	3.1
CCOC(=O)c1c(-c2ccccc2)[n+](=O)c2ccc(Cl)cc2n1[O-]	4.91	23	18	45.6	17.9	20.2	16.8	49.5	17.7	25.4	1.93	11	5.43	4.93	5.36	7.12	4.46	19.3	5.59	12.5
O=C(O)CC(Nc1ccccc1)C(=O)O (configuration not stated)	> 100	> 100	> 100	> 100	> 100	> 100	> 100	> 100	> 100	> 100	–	–	–	–	–	–	–	–	–	–
COc1cc(/C=C/C(=O)c2ccc(Nc3ncnc4ccccc34)cc2)cc(OC)c1	52.7	4.05	5.38	17.1	> 100	57.3	17.1	9.32	9.68	27.7	1.32	2.07	1.77	2.4	14.2	20.3	3.68	2.11	2.38	7.7
COc1ccc2c(c1)CCc1c(-c3noc4c3CCc3cc(OC)ccc3-4)noc1-2	> 100	> 100	> 100	> 100	> 100	> 100	> 100	> 100	> 100	> 100	–	–	–	–	–	–	–	–	–	–
COc1ccc(/C=C2\CN(Cc3cn(CCCNc4ccnc5cc(Cl)ccc45)nn3)C/C(=C\c3ccc(OC)c(OC)c3)C2=O)cc1OC	5.19	2.38	1.07	6.27	2.12	6.42	15.4	3.01	1.75	3.16	1.45	0.663	0.304	1.39	0.806	2.68	0.81	1.56	0.455	1.49
COc1ccc(NC(=O)C(=O)C2CNC(=O)NC2=O)c(OC)c1 (configuration not stated)	> 100	> 100	> 100	> 100	> 100	> 100	> 100	> 100	> 100	> 100	–	–	–	–	–	–	–	–	–	–
CC(C)NCC(O)COC(=O)c1cccs1 (configuration not stated)	> 100	> 100	> 100	> 100	> 100	> 100	> 100	> 100	> 100	> 100	–	–	–	–	–	–	–	–	–	–
NC1=C(Cl)C(=O)c2ccc(S(N)(=O)=O)cc2C1=O	3.73	2.91	1.06	3.22	0.487	0.658	0.977	0.903	0.89	0.273	2.04	0.715	0.332	0.515	0.21	0.251	0.273	0.286	0.293	0.135
